We go through 8 molecules from article PMC5242348, “Triterpene Constituents of Euphorbia Erythradenia Bioss. and their Anti-HIV Activity” (Iranian Journal of Pharmaceutical Research : IJPR, 2016).

Data set [1] deals with single cycle replicable HIV-1 (SCR HIV-1) virions. The note with it: ratio of CC50 (Hela, XTT) to IC50 (p24).
Data set [2] in a line: XTT-based cytotoxicity assay. The following applies: human. On the technique in general: Tetrazolium assays rely on reduction of a dye to a coloured formazan, in cell work by metabolically active cells.
The subject of data set [3] is single cycle replicable HIV-1 (SCR HIV-1) virions. As to the kind of experiment: microbe, parasite or virus in culture. The note with it: Human immunodeficiency virus 1, HeLa, 48 h, read-out: Anti HIV activity IC50 (concentration causing 50% HIV activity inhibition).

What is called CC50 is the concentration at which the toxic effect on the cells reaches its halfway point. Read a low CC50 as harm at low concentration. As to `C=C(C)C(O)CCC(C)C1CC[C@@]2(C)C3CCC4C(C)(C)[C@@H](O)CC[C@@]45C[C@@]35CC[C@]12C` (stereo partly shown) [1a & 1b], the “Therapeutic index TI (CC50/IC50)” value in data set [1] is recorded as 4.67. In data set [2] (HeLa cells), the CC50 at 3 days came out at 0.014 µM. In data set [3], the IC50 turned out to be 0.003 µM.

Turning to `CC(C/C=C\C(C)(C)O)C1CC[C@@]2(C)C3CCC4C(C)(C)[C@@H](O)CC[C@@]45C[C@@]35CC[C@]12C` (stereo partly drawn) [Compound 2, Cycloart-23-ene-3β,25-diol], the “Therapeutic index TI (CC50/IC50)” value in data set [1] is on record as 3.67. Moreover, in data set [2] (HeLa cells), it took 0.022 µM to reach half-maximal cytotoxicity (CC50 at 3 days). The IC50 in data set [3] is 0.006 µM.

On to `CC1(C)CC[C@]2(C(=O)O)CC[C@]3(C)C(=CC[C@@H]4[C@@]5(C)CC[C@H](O)C(C)(C)[C@@H]5CC[C@]43C)[C@@H]2C1` [Compound 4, Oleanolic acid], for which the “Therapeutic index TI (CC50/IC50)” value in data set [1] was 2.44. Moreover, in data set [2], it took 0.022 µM to reach half-maximal cytotoxicity (CC50 at 3 days). Moreover, in data set [3], the IC50 amounted to 0.009 µM.

Turning to `CC=C(C)C(=O)OC1C(COC(=O)c2cccnc2)C(O)C2C(=O)C3(CC(C)C(OC(=O)CCC)C13)C(C)(O)CC1(OC(C)=O)C2C1(C)C` (stereo not shown) [Compound 5, 13-acetyl-3-butanoyl-5-angeloyl-20-nicotinyl-1,2,6,7-tetrahydroingenol], the “Therapeutic index TI (CC50/IC50)” value in data set [1] was 0.11. In data set [2], this molecule came in with a CC50 at 3 days of 0.004 µM. Besides, the IC50 in data set [3] worked out at 0.036 µM.

Turning to `CC=C(C)C(=O)OC1C(COC(=O)c2cccnc2)C(OC(C)=O)C2C(=O)C3(CC(C)C(OC(=O)CC)C13)C(C)(O)CC1(OC(C)=O)C2C1(C)C` (stereo not shown) [Compound 6, 7,13-diacetyl-5-angeloyl-20-nicotinyl-3-propionyl-1,2,6,7-tetrahydroingenol], the “Therapeutic index TI (CC50/IC50)” value in data set [1] is on record as 11.75. Also, the midpoint of cytotoxicity in data set [2], the CC50 at 3 days, lay at 0.084 µM. For the same molecule, the IC50 in data set [3] worked out at 0.007 µM.

Regarding `CCC(=O)OC1C(C)CC23C(=O)C(C(OC(=O)c4ccccc4)C(COC(=O)c4cccnc4)C(OC(C)=O)C12)C1C(C)(C)C1(OC(C)=O)CC3(C)O` (stereo not shown) [Compound 7, 5,13-diacetyl-7-benzoyl-20-nicotinyl-3-propionyl-1,2,6,7-tetrahydroingenol], in data set [2], the CC50 at 3 days amounted to 3.26 µM. The IC50 in data set [3] turned out to be 0.008 µM.

For `CC=C(C)C(=O)OC1C(CO)C(O)C2C(=O)C3(CC(C)C(OC(=O)CCC)C13)C(C)(OC(=O)c1cccnc1)CC1(OC(C)=O)C2C1(C)C` (stereo not shown) [Compound 8, 13-acetyl-5-angeloyl-11-nicotinyl-3-butanoyl-1,2,6,7-tetrahydroingenol], the CC50 at 3 days in data set [2] was 0.168 µM. The IC50 in data set [3] turned out to be 0.044 µM.

As to `Cc1ccnc2c1NC(=O)c1cccnc1N2C1CC1` [Nevirapine, reference compound], the “Therapeutic index TI (CC50/IC50)” value in data set [1] is listed as > 105.31. In data set [2], this molecule had a CC50 at 3 days of 6.74 µM. Further, in data set [3], the IC50 was < 0.064 µM.
